PubChem BioAssay (NCI)
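Test compounds were applied to cells in 96-well plates for 48 hours at 5 doses. GI50 is the concentration that inhibits growth by half. TGI: total growth inhibition.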

What was measured:
Test in all cases: NCI-60 cell line screen, 48 h
ACHN renal = system: ACHN renal
COLO 205 colon = system: COLO 205 colon
MOLT-4 leukemia = system: MOLT-4 leukemia
NCI-H226 lung = system: NCI-H226 lung
NCI-H460 lung = system: NCI-H460 lung
OVCAR-3 ovarian = system: OVCAR-3 ovarian
OVCAR-5 ovarian = system: OVCAR-5 ovarian
SK-MEL-28 melanoma = system: SK-MEL-28 melanoma
SN12C renal = system: SN12C renal
TK-10 renal = system: TK-10 renal

Row | SMILES | GI50 (ACHN renal) | TGI (ACHN renal) | GI50 (COLO 205 colon) | TGI (COLO 205 colon) | GI50 (MOLT-4 leukemia) | TGI (MOLT-4 leukemia) | GI50 (NCI-H226 lung) | TGI (NCI-H226 lung) | GI50 (NCI-H460 lung) | TGI (NCI-H460 lung) | GI50 (OVCAR-3 ovarian) | TGI (OVCAR-3 ovarian) | GI50 (OVCAR-5 ovarian) | TGI (OVCAR-5 ovarian) | GI50 (SK-MEL-28 melanoma) | TGI (SK-MEL-28 melanoma) | GI50 (SN12C renal) | TGI (SN12C renal) | GI50 (TK-10 renal) | TGI (TK-10 renal)
1 | COc1cc(/C=C/c2cc(C(F)(F)F)[nH]c(=O)n2)ccc1OCc1ccccc1F | 12.7 µM | 38.7 µM | 19.1 µM | 33.9 µM | 7.27 µM | 38 µM | 11.9 µM | 43.2 µM | 4.44 µM | 39.3 µM | 4.72 µM | 17.4 µM | 16.5 µM | 30.9 µM | 9.27 µM | 24.7 µM | 7.04 µM | 32.6 µM | 18 µM | 39.1 µM
2 | Cc1cc2c(CC(=O)O)[nH]nc2c(C(=O)O)c1C |  | > 100 µM |  | > 100 µM |  | > 100 µM |  | > 100 µM |  | > 100 µM |  | > 100 µM |  | > 100 µM |  | > 100 µM |  | > 100 µM |  | > 100 µM
3 | CN1CCN(Cc2ccc(NC(=O)c3cncc(C#Cc4cnc(N)c5ccc(F)cc45)c3)cc2C(F)(F)F)CC1 | 1.02 µM | 4.36 µM | 1.23 µM | 4.77 µM | 0.974 µM | 6.19 µM | 1.05 µM | 6.16 µM | 1.08 µM | 8.95 µM | 2.35 µM | 7.21 µM | 3.52 µM | 7.51 µM | 2.52 µM | 7.11 µM | 1.2 µM | 4.89 µM | 2.44 µM | 6.68 µM
4 | Nc1nc(-c2cccc([N+](=O)[O-])c2)c(Br)c(=O)[nH]1 |  | > 100 µM |  | > 100 µM |  | > 100 µM |  | > 100 µM |  | > 100 µM |  | > 100 µM |  | > 100 µM |  | > 100 µM |  | > 100 µM |  | > 100 µM
5 | CCCCCCNC(=O)C1=C(C)NC(C)=C(C(=O)NCCCCCC)C1 |  | > 100 µM |  | > 100 µM |  | > 100 µM |  | > 100 µM |  | > 100 µM |  | > 100 µM |  | > 100 µM |  | > 100 µM |  | > 100 µM |  | > 100 µM
6 | C=CCCCCCCCCCCCC1CCC(CC)N1 (stereo not given) |  | 31.1 µM |  | 14.7 µM |  | 17 µM |  | 49.1 µM |  | 40.7 µM |  | 23 µM |  | 22.6 µM |  | 29.6 µM |  | 24.3 µM |  | 32.1 µM
7 | O=[N+]([O-])c1ccc2[nH]cc(-c3c4ccsc4cc4[nH]c5ccc([N+](=O)[O-])cc5c34)c2c1 | 1.52 µM | 14.9 µM | 0.796 µM | 2.42 µM | 1.27 µM | 5.5 µM | 0.967 µM | 3.95 µM | 0.922 µM | 4.13 µM | 0.354 µM | 1.44 µM | 1.29 µM | 7.8 µM | 1.38 µM | 6.44 µM | 1.43 µM | 11.4 µM | 2.85 µM | 18.5 µM
8 | Cc1c(CCCl)c(=O)n2c([nH]c3ccccc32)c1C#N |  | 2.81 µM |  | 0.28 µM |  | 1.44 µM |  | 4.84 µM |  | 3.96 µM |  | 3.67 µM |  | 4.43 µM |  | 3.72 µM |  | 2.66 µM |  | 5.62 µM
9 | COc1ccc(-c2c(C3=NCCN3)nnn2-c2ccccc2)cc1 |  | > 100 µM |  | > 100 µM |  | > 100 µM |  | > 100 µM |  | > 100 µM |  | > 100 µM |  | > 100 µM |  | > 100 µM |  | > 100 µM |  | > 100 µM
10 | O=C(Nc1ccccc1C(F)(F)F)c1cccc(NC2=C(Cl)C(=O)N(Cc3ccccc3)C2=O)c1 | 5.39 µM | 26.9 µM | 39.4 µM | > 100 µM | 4.29 µM | 30.8 µM | 15.4 µM | 52.9 µM | 3.52 µM | 15.9 µM | 6.62 µM | > 43.8 µM | 20 µM | > 100 µM | > 90.2 µM | > 100 µM | 7.49 µM | > 57.4 µM | 6.85 µM | 37.2 µM
11 | Cc1ccc(C(=O)c2oc3ccc4c(C)cc(=O)oc4c3c2C)cc1 | 3.65 µM | 94.3 µM | 4.66 µM | > 100 µM | 63.6 µM | > 100 µM | 11.7 µM | > 100 µM | 0.896 µM | 18.2 µM | 14.7 µM | 54.8 µM | 11.2 µM | > 100 µM | 6.37 µM | > 100 µM | 10.4 µM | > 100 µM | 45.1 µM | > 100 µM
12 | COC(=O)c1c(-c2ccccc2)cc2c3cc(-c4ccccc4)c(C(=O)OC)n3c3ccccc3n12 |  | > 100 µM |  | > 100 µM |  | > 100 µM |  | > 100 µM |  | > 100 µM |  | > 100 µM |  | > 100 µM |  | > 100 µM |  | > 100 µM |  | > 100 µM
13 | COc1ccc2c(c1)C(=O)CC(N)C2 (stereo not given) |  | > 100 µM |  | > 100 µM |  | > 100 µM |  | > 100 µM |  | > 100 µM |  | > 100 µM |  | > 100 µM |  | > 100 µM |  | > 100 µM |  | > 100 µM
14 | CN1CC(c2ccccc2)N(CCCCN2CC(c3ccccc3)N(C)CC2c2ccccc2)CC1c1ccccc1 (stereo not given) |  | > 100 µM |  | > 100 µM |  | > 100 µM |  | > 100 µM |  | > 100 µM |  | > 100 µM |  | > 100 µM |  | > 100 µM |  | > 100 µM |  | > 100 µM
15 | COc1cc2nc(-c3ccc(C(F)(F)F)cc3)cc(OCCCN3CCOCC3)c2cc1OC | 2.01 µM | 18.2 µM | 0.528 µM | 10.3 µM | 2.51 µM | 14.9 µM | 0.406 µM | 4.87 µM | 0.639 µM | 13.6 µM | 3.72 µM | 18.4 µM | 1.92 µM | 18.8 µM | 1.44 µM | 3.27 µM | 0.675 µM | 19.7 µM | 13.9 µM | 30.6 µM
16 | C=CCNC(=S)N1CC(C)C(=O)Nc2ccccc21 (stereo not given) |  | > 100 µM |  | > 100 µM |  | > 100 µM |  | > 100 µM |  | > 100 µM |  | > 100 µM |  | > 100 µM |  | > 100 µM |  | > 100 µM |  | > 100 µM
17 | CC(=O)N/C(=C\c1ccc(/C=C(\NC(C)=O)c2nc3ccc(Cl)cc3[nH]2)cc1)c1nc2ccccc2[nH]1 |  | > 100 µM |  | > 100 µM |  | > 100 µM |  | > 100 µM |  | > 100 µM |  | > 100 µM |  | > 100 µM |  | > 100 µM |  | > 100 µM |  | > 100 µM
